Source: the SangsterLogP compilation

Test: method code SF-AS, from PMID: 6686445
Conditions: pH 7.4

SMILES | logD
CC(=O)c1ccc2c(c1)C(c1ccccc1F)=NCC(=O)N2 | 1.75
CCN1C(=O)CN=C(c2ccccc2)c2cc(N)ccc21 | 1.81
O=C1CN=C(c2c(F)cccc2F)c2ccc(Cl)cc2N1 | 2.88
O=C1CN=C(c2c(F)cccc2F)c2cc(Cl)ccc2N1 | 2.68
O=C1CN=C(c2ccccc2)c2cc(C(F)(F)F)ccc2N1 | 3.1
CN1C(=O)CN=C(c2c(Cl)cccc2Cl)c2cc(Cl)ccc21 | 3.04
CN1C(=O)CN=C(c2ccccc2F)c2cc(Cl)ccc21 | 2.75
O=C1CN=C(c2ccccc2F)c2ccccc2N1 | 2.38
O=C1CN=C(c2ccccc2)c2cc([N+](=O)[O-])ccc2N1CC(O)CO (stereo not given) | 0.96
CSCN1C(=O)CN=C(c2ccccc2)c2cc(Cl)ccc21 | 3.32
CC1N=C(c2ccccc2Cl)c2cc(Cl)ccc2N(C)C1=O (stereo not given) | 3.4
O=C1CN=C(c2ccccc2)c2ccccc2N1 | 2.18
COc1cccc(C2=NCC(=O)Nc3ccc(Cl)cc32)c1 | 3.14
CSc1ccccc1C1=NCC(=O)Nc2ccc(Cl)cc21 | 2.99
O=C1CN=C(c2ccccc2C(F)(F)F)c2ccccc2N1 | 2.47
O=C1CN=C(c2ccc(F)cc2)c2cc(Cl)ccc2N1 | 2.9
O=C1CN=C(c2ccccc2F)c2cc(Cl)ccc2N1 | 2.7
N#Cc1ccc2c(c1)C(c1ccccc1)=NCC(=O)N2 | 1.82
Cc1ccccc1C1=NCC(=O)Nc2ccc(Cl)cc21 | 3.12
COCN1C(=O)CN=C(c2ccccc2)c2cc(N)ccc21 | 1.32
O=C1CN=C(c2ccc(C(F)(F)F)cc2)c2ccccc2N1 | 3.34
O=C1CN=C(c2ccccc2[N+](=O)[O-])c2cc([N+](=O)[O-])ccc2N1 | 1.61
COCN1C(=O)CN=C(c2ccccc2)c2cc([N+](=O)[O-])ccc21 | 2.05
COCN1C(=O)CN=C(c2ccccc2Cl)c2cc(Cl)ccc21 | 3.23
CN1C(=O)CN=C(c2ccccc2)c2cc(N)ccc21 | 1.46

SMILES | logD
CN1C(=O)CN=C(c2ccccc2Cl)c2cc(Cl)ccc21 | 3.12
COCN1C(=O)CN=C(c2ccccc2F)c2cc(N)ccc21 | 1.31
C[C@@H]1N=C(c2ccccc2Cl)c2cc([N+](=O)[O-])ccc2NC1=O | 2.72
COc1ccc2c(c1)C(c1ccccc1)=NCC(=O)N2 | 2.24
Cc1ccc2c(c1)C(c1ccccc1)=NCC(=O)N2 | 2.62
COc1ccc(C2=NCC(=O)N(C)c3ccc(Cl)cc32)cc1 | 3.15
O=C1CN=C(c2ccccc2F)c2cc([N+](=O)[O-])ccc2N1 | 2.15
COCN1C(=O)CN=C(c2ccccc2)c2cc(Cl)ccc21 | 2.86
CCN1C(=O)CN=C(c2ccccc2)c2cc(Cl)ccc21 | 3.21
O=C1CN=C(c2ccccc2F)c2cc(Cl)ccc2N1CC(O)CO (stereo not given) | 1.51
Cc1ccccc1C1=NCC(=O)N(C)c2ccc(Cl)cc21 | 3.03
O=C1CN=C(c2cccc(C(F)(F)F)c2)c2ccccc2N1 | 3.19
CN1C(=O)CN=C(c2ccccc2F)c2cc(N)ccc21 | 1.3
CN1C(=O)CN=C(c2ccc(Cl)cc2)c2cc(F)ccc21 | 3.1
CCc1ccc2c(c1)C(c1ccccc1F)=NCC(=O)N2 | 2.92
O=C1CN=C(c2ccccc2)c2cc(F)ccc2N1 | 2.32
COCN1C(=O)C(O)N=C(c2ccccc2)c2cc(N)ccc21 (stereo not given) | 0.75
O=C1CN=C(c2ccccc2C(F)(F)F)c2cc([N+](=O)[O-])ccc2N1 | 2.51
CSc1ccc2c(c1)C(c1ccccc1)=NCC(=O)N2C | 2.95
O=C1CN=C(c2ccccc2Cl)c2cc(Cl)ccc2N1 | 3.15
COc1ccccc1C1=NCC(=O)Nc2ccc(Cl)cc21 | 2.63
CN1C(=O)CN=C(c2ccccc2F)c2cc(I)ccc21 | 3.14
O=C1CN=C(c2ccccc2Br)c2cc(Cl)ccc2N1 | 3.17
CSCN1C(=O)CN=C(c2ccccc2)c2cc(N)ccc21 | 1.92
O=C1CN=C(c2ccccc2F)c2cc(Cl)c(Cl)cc2N1 | 3.63
